Molecular target: T1, CHO cells expressing human CB2 receptors (Homo sapiens, UniProt P34972)
T1 construct: expressed in transfected cells; host or cells: CHO cells, stably transfected
Test: cell-based LANCE cAMP assay
Conditions: forskolin-stimulated, RO-20-1724 present, FIG. 4
Procedure: FIG. 4 relates to cAMP Assay Results. LANCE signal of CB2 ligands. Stably transfected CHO cells expressing human CB2 receptors were utilized to carry out the LANCE cAMP assay. […] Data is mean±SEM of all experiments of two or more performed in triplicate.
(§1) The antibodies are labeled with Alexa Fluor dye that is sensitive to energy emissions. Briefly, the cell-based LANCE cAMP assays were performed on 384-well ProxiPlates using CHO cells stably expressing the CB2 receptors at density of 2×10^3 cells per well in 5 μL of RPMI-1640 medium (Gibco Laboratories, Grand Island, N.Y.) containing 1% dialyzed FBS, 25 mM HEPES, […], and 200 μg/ml of […]. After incubation overnight, 2.5 μL of cAMP antibody and RO20-1724 (a phosphodiesterase inhibitor) in stimulation buffer (DPBS 1×, containing 0.1% BSA) was added to each well, followed by the addition of 2.5 μL of the compound plus the forskolin complex (an adenyl cyclase activator). After incubation at room temperature for 45 minutes, 10 μL of detection buffer was added into each well. The plate was then incubated at room temperature for 1 hour. The plate was then measured in a Synergy H1 hybrid reader (BioTek) with excitation at 340 nm and emission at 665 nm. The results represent at least two independent experiments each in triplicates. EC50 values were determined by nonlinear regression dose-response curve (GraphPad Prism 5).
as §1, with “Cyclic AMP levels were measured by performing the cell-based LANCE cAMP-384 kit assay (PerkinElmer) as previously described 13-14. The assay is based on the competition between the europium-labeled cAMP tracer complex and sample cAMP for binding sites on cAMP-specific antibodies. The antibodies” for “The antibodies”
The LANCE cAMP assay was carried out to measure the functional activities of our synthesized CB2 selective ligands as previously described 14. Briefly, the assay was performed on 384-well plates using CHO cells stably expressing CB2 receptors in the presence of phosphodiesterase inhibitor, RO-20-1724 and adenyl cyclase activator, forskolin.

T1 sequence (P34972 whole entry): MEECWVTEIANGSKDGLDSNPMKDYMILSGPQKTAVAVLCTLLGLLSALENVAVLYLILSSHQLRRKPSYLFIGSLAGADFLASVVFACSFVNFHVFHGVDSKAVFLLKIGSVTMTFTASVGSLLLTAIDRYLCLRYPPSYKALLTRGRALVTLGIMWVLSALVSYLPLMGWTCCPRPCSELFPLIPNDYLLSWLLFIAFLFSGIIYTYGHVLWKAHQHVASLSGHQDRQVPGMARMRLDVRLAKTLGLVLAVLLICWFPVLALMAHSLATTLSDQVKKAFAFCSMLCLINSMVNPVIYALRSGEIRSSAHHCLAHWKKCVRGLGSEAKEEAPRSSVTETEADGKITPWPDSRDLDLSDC

Row | Compound | CB2 functional activity (LANCE cAMP signal)
1 | SR-144,528 [reference compound] | inverse agonists
2 | CCCCCCC(C)(C)c1ccc([C@@H]2C[C@H](O)CC[C@H]2CCCO)c(O)c1 [CP55940, (—)-cis-3-[2-hydroxy-4-(1,1 dimethylheptyl)phenyl]-trans-4-(3-hydroxypropyl) cyclohexanol, reference compound] | inhibit cAMP production
